Patent publication US6136992A, “2-alkoxy estradiols and derivatives thereof” (The United States of America as represented by the …, priority 1998, dated 2000)
Like-named read-outs stand apart in the source and are kept apart here.

Tests used:
SR = assay: NCI screen, leukemia; format: cell-based; settings: Homo sapiens, read-out: Log10 GI50, SR (converted)
OVCAR-3 = assay: NCI screen, ovarian cancer; format: cell-based; settings: Homo sapiens, read-out: Log10 GI50, OVCAR-3 (converted)
NCI-H322M = assay: NCI screen, non-small cell lung cancer; format: cell-based; settings: Homo sapiens, read-out: Log10 GI50, NCI-H322M (converted)
SK-MEL-5 = assay: NCI screen, melanoma; format: cell-based; settings: Homo sapiens, read-out: Log10 GI50, SK-MEL-5 (converted)
SF-295 = assay: NCI screen, CNS cancer; format: cell-based; settings: Homo sapiens, read-out: Log10 GI50, SF-295 (converted)
UACC-62 melanoma cells = assay: NCI in vitro anticancer screen, UACC-62 melanoma; format: cell-based; settings: Homo sapiens
Source text: (§1) The effects of the analogs on cancer cell growth was investigated in the National Cancer Institute (NCI) Developmental Therapeutics Program's in vitro panel of approximately 55 cell lines (Grever et al., Seminars in Oncology 19:622 (1992), Alley et al., Cancer Research 48:589 (1988) and Montes et al., J. National Cancer Institute 83:757 (1991)). Representative results are listed in Table 1 for HOP-62 non-small-cell lung cancer cells, HCT-116 colon cancer cells, SF-539 central nervous system (CNS) cancer cells, UACC-62 melanoma cells, OVCAR ovarian cancer cells, SN12-C renal cancer cells, DU-145 prostate cancer cells, and MDA-MB-435 breast cancer cells.
(§2) ^a The cytotoxicity GI50 values are the concentrations

UO-31 = assay: NCI screen, renal cancer; format: cell-based; settings: Homo sapiens, read-out: Log10 GI50, UO-31 (converted)
BT-549 = assay: NCI screen, breast cancer; format: cell-based; settings: Homo sapiens, read-out: Log10 GI50, BT-549 (converted)
MCF7 = assay: NCI screen, breast cancer; format: cell-based; settings: Homo sapiens, read-out: Log10 GI50, MCF7 (converted)
MCF7/ADR-RES = assay: NCI screen, breast cancer; format: cell-based; settings: Homo sapiens, read-out: Log10 GI50, MCF7/ADR-RES (converted)
NCI-H460 = assay: NCI screen, non-small cell lung cancer; format: cell-based; settings: Homo sapiens, read-out: Log10 GI50, NCI-H460 (converted)
tubulin = assay: Inhibition of tubulin polymerization (turbidimetry at 350 nm); format: biochemical, bovine; settings: 26° C., 20 min; read-out: Inhibn of Tubulin Polymn IC50
Method: Four instruments were used, and two control reaction mixtures were present in each experiment. […] IC50 values were determined graphically. […]
Inhibition of tubulin polymerization was investigated using electrophoretically homogeneous tubulin from bovine brain.

RXF 393 = assay: NCI screen, renal cancer; format: cell-based; settings: Homo sapiens, read-out: Log10 GI50, RXF 393 (converted)
EKVX = assay: NCI screen, non-small cell lung cancer; format: cell-based; settings: Homo sapiens, read-out: Log10 GI50, EKVX (converted)
[1] = tested on: HOP-62 non-small-cell lung cancer cells; assay: NCI in vitro anticancer screen, HOP-62 non-small-cell lung cancer; format: cell-based; settings: Homo sapiens
Source text: as §1, §2

NCIH-522 = assay: NCI screen, non-small cell lung cancer; format: cell-based; settings: Homo sapiens, NCI-H522, read-out: Log10 GI50, NCIH-522 (converted)
[2] = tested on: DU-145 prostate cancer cells; assay: NCI in vitro anticancer screen, DU-145 prostate cancer; format: cell-based; settings: Homo sapiens
Source text: as §1, §2

K562 = assay: NCI screen, leukemia; format: cell-based; settings: Homo sapiens, read-out: Log10 GI50, K562 (converted)
MOLT-4 = assay: NCI screen, leukemia; format: cell-based; settings: Homo sapiens, read-out: Log10 GI50, MOLT-4 (converted)
[3] = tested on: OVCAR ovarian cancer cells; assay: NCI in vitro anticancer screen, OVCAR ovarian cancer; format: cell-based; settings: Homo sapiens, read-out: cytotoxicity GI50, Ovarian OVCAR
Source text: as §1, §2

A549/ATCC = assay: NCI screen, non-small cell lung cancer; format: cell-based; settings: Homo sapiens, read-out: Log10 GI50, A549/ATCC (converted)
CCRF-CEM = assay: NCI screen, leukemia; format: cell-based; settings: Homo sapiens, read-out: Log10 GI50, CCRF-CEM (converted)
estrogen receptor = target: T1, estrogen receptor (Rattus norvegicus, UniProt P06211); assay: Estrogen binding affinity assay (comparative radiometric binding, rat uterine cytosol)
T1 construct: from tissue; host or cells: rat uterine cytosol
T1 sequence (P06211 1-600): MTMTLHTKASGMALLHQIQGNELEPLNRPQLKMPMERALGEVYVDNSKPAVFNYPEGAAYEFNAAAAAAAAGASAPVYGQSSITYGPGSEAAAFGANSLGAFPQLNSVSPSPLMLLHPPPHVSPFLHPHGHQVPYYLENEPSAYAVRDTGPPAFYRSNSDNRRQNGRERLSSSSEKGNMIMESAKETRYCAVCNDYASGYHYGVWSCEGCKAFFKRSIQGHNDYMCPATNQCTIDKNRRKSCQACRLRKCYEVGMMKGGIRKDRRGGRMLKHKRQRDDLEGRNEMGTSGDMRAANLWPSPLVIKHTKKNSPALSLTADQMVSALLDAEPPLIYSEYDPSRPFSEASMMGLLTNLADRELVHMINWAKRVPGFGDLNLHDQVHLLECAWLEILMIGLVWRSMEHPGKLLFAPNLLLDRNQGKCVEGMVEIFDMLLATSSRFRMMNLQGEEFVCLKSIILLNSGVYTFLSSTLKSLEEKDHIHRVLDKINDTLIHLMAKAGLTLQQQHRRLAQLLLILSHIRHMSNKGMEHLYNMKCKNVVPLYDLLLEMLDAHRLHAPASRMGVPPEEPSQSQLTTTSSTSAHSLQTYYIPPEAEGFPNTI
Method: The assay of (11), (12) and (16) were conducted at 0° C. for 20 hours, while those for (1) and (2) were performed at 0° C. for 18 hours.

SMILES: C[C@]12CC[C@@H]3c4cc(OCC(F)(F)F)c(O)cc4C(=NO)C[C@H]3[C@@H]1CC[C@@H]2O [Compound 12, 2-(2',2', 2'-Trifluoroethoxy)-6-Hydroximino-Estra-1,3,5(10)-Triene-3,17β-Diol]
- GI50 (SR): < 10 nM
- GI50 (OVCAR-3): < 10 nM
- GI50 (NCI-H322M): < 10 nM
- GI50 (SK-MEL-5): < 10 nM
- GI50 (SF-295): < 10 nM
- GI50 (UACC-62 melanoma cells; UACC-62, read-out: cytotoxicity GI50, Melanoma UACC-62): < 10 nM
- GI50 (UACC-62 melanoma cells; UACC-62, Melanoma, read-out: Log10 GI50, UACC-62 (converted)): < 10 nM
- GI50 (UO-31): < 10 nM
- GI50 (BT-549): < 10 nM
- GI50 (MCF7): < 10 nM
- GI50 (MCF7/ADR-RES): < 10 nM
- GI50 (NCI-H460): < 10 nM
- IC50 (tubulin): 500 nM
- GI50 (RXF 393): < 10 nM
- GI50 (EKVX): < 10 nM
- GI50 ([1]; HOP-62, read-out: cytotoxicity GI50, Lung HOP-62): < 10 nM
- GI50 ([1]; HOP-62, Non-Small Cell Lung Cancer, read-out: Log10 GI50, HOP-62 (converted)): < 10 nM
- GI50 (NCIH-522): < 10 nM
- GI50 ([2]; DU-145, read-out: cytotoxicity GI50, Prostate DU-145): < 10 nM
- GI50 ([2]; DU-145, Prostate Cancer, read-out: Log10 GI50, DU-145 (converted)): < 10 nM
- GI50 (K562): < 10 nM
- GI50 (MOLT-4): < 10 nM
- GI50 [3]: < 10 nM
- GI50 (A549/ATCC): < 10 nM
- GI50 (CCRF-CEM): < 10 nM
- affinity for the estrogen receptor, in words (estrogen receptor): very week affinity for the receptor
